Columns and labels:
M. abscessus strain 103 = assay: Mouse model of M. abscessus in the SCID mouse; format: in vivo; details: treatment end
M. avium = assay: Minimum inhibitory concentration, microbroth dilution, presence and absence of CF sputum; format: cell-based; details: Mycobacterium avium, M. avium B18101968; + SP (10% CF sputum)
Experimental: Minimum inhibitory concentration (MIC) testing was performed by microbroth dilution method using Mueller Hinton (MH) broth (Cation Adjusted) to the calcium and magnesium ion concentration recommended in the CLSI standard M7-A7 (Becton Dickinson). MIC testing also was performed by microbroth dilution method using 7H9 broth (Sigma-Aldrich). […] M. abscessus was grown on 7H11 agar plates (Sigma-Aldrich) for 3 days at 35-37° C. in ambient air (depending on bacterial strain), and M. avium was grown on agar 7H11 plates (Sigma-Aldrich) for 21-30 days at 37° C. in ambient air.
The colony forming units (CFUs) are taken from the agar plates and placed in either MH or 7H9 broth with 0.05% tween-80 and grown at 35-37° C. in ambient air until the optical density (OD) absorbance taken after 3 days (M. abscessus) or 12 (M. avium) of growth is an (OD) 0.08-0.1 (0.5 McFarland Standard). The bacterial cell suspensions are then confirmed by preparing them in saline, matching the (OD) 0.08-0.1 (0.5 McFarland Standard). […]
Minimum inhibitory concentrations assays were performed as described above. […] The MIC of the Composition of Example 1 was measured following the same CLSI protocol as described above, in the presence and absence of cystic fibrosis patient sputum. […]

[1] = tested on: M. avium strain 2285 rough; assay: Acute mouse model of M. avium infection in the Beige mouse; format: in vivo; details: treatment end, Oral 20 mg/kg every other day from day 7
M. avium 2285 rough = assay: Chronic Beige mouse model; format: in vivo, Beige mice; details: Day 57, Oral 20 mg/kg, 14 treatments every other day from Day 28
[2] = Plasma toxicokinetics, 28-day inhalation study in dogs; details: Beagle, dog, in vivo, inhaled or intranasal
Experimental: The animals were studied for a period of 84 days.
All GLP canine study activities were performed by Lovelace Biomedical Research Institute (LBRI) under an IACUC approved protocol. Five groups of Beagle dogs were divided into study groups (Table 1) and exposed once daily by face-mask inhalation to filtered air (Group 1), vehicle (Group 2-0.5% polysorbate in saline), or CIS (Groups 3-5) for 28 consecutive days. The Low, Mid, and High doses (Groups 3, 4, and 5) were exposed to an average aerosol concentration of 0.209 mg/L for 30 min, 60 min and 120 min, respectively. The 28-day exposure period was followed by 28- and 56-day no exposure recovery periods (Recovery Study, Study Day (SD) 56 and 84 respectively). Blood was collected for toxicokinetic (TK) analysis from animals after both the first day of dose administration (Day 1; (0.5 hours (±5 minutes), 6 hours (±30 minutes), 12 hours (±30 minutes), 24 hours (±1 hour)), the last day of dose administration (SD28), and at […], SD56 and SD84, as indicated in Table 1. Main Study animals were necropsied one day post final exposure (SD29), while two male and two female Recovery Study animals were each necropsied on SD56 and SD84.
Aerosolized CIS was delivered to each dog by way of a 6-port aerosol exposure system using three Micro Mist compressed air jet nebulizers. (Supplementary Figure S1) All animals were conditioned to the face masks and restraint system before study. The exposure system and aerosol characteristics of the API and vehicle, including target aerosol concentration, concentration homogeneity, concentration repeatability, and aerosol size distribution were confirmed by LBRI prior to study. Dosing for each dog was measured for every dose delivered throughout study and calculated against individual dog weights.
Blood samples were immediately processed or held on wet ice for no more than 2 hours (hr) before being processed to plasma by centrifugation (1300 g, 2-8° C., ≥10 minutes), with plasma separated into appropriately labeled vials and stored frozen (−70 to −90° C.) until CFZ analysis.
Main study animals (3M/3F per timepoint) had blood samples collected at the following timepoints post-exposure on SD1 and SD28: 0.5 hr (±5 minutes), 6.0 hr (±30 minutes), 12 hr (±30 minutes), and 24 hr (±1 hr). Recovery animals (2M/2F per Recovery timepoint) from each group had blood collected on SD42, and prior to euthanasia on SD56 or SD84. The sample size for each group, sex, and timepoint is described in Table 1. Actual collection times were documented, and all animals in this study underwent scheduled sampling at their respective timepoints.
Retention time and peak area were determined by Analyst® Data Acquisition/Processing Software (Version 1.6.3). Analyte concentrations were obtained from a calibration curve constructed by plotting the peak area versus the nominal concentration using Analyst.
Clinical observations were descriptive while numerical evaluations (means and standard deviations) were used for all other parameters where possible. Toxicokinetic parameters were estimated for blood plasma using Phoenix WinNonlin version 8.3 software (Certara L.P.) with a non-compartmental analysis (NCA) consistent with aerosol administration (extravascular model) on each subject at each timepoint. NCA was only performed if there were quantifiable concentrations at two consecutive timepoints. Concentration values below the lower limit of quantitation of 2.00 ng/ml for plasma were labeled as below quantitative limits (BQL). These BQL values were treated as missing and excluded from calculation of descriptive statistics and toxicokinetic analysis.
Concentrations were used with full precision to three significant figures as received from bioanalytical data.

[3] = Lung and other tissue toxicokinetics, 28-day inhalation study in dogs; details: Beagle, in vivo, inhaled or intranasal, dog lung, SD29 to SD84, read-out: lung terminal elimination half-life (converted)
Source text: Clofazimine was extracted by protein precipitation from dog plasma.

clinical = details: human, plasma, inhaled
Experimental: (§2) For placebo, subjects were treated with a nebulized sterile, isotonic saline solution consisting of 0.9% wt/v sodium chloride. […] The doses were administered by inhalation with a Pari e-Flow nebulizer system to investigate tolerability and pharmacokinetics (PK) in healthy human subjects. The subjects were monitored for any life-threatening or severe adverse events and samples of their blood were taken for analysis.
(§3) Participants resided at the clinical research unit until day 5 post-dose, during which time they were evaluated for safety and samples were collected for PK assessment. Participants returned on days 8 and 15 for additional safety assessments and sample collection. […] Participants resided at the clinical research unit until day 8 post-dose, during which time they were evaluated for safety and samples were collected for PK assessment. Participants returned on days 15 and 36 for additional safety assessments and sample collection.

[4] = BCS class II drug; cited from earlier work
[5] = cited from earlier work
[6] = Pharmacokinetics of clofazimine delivered by nebulization in healthy subjects
Experimental: as §2, §3

[7] = Safety and tolerability of clofazimine delivered by nebulization in healthy subjects; details: inhaled, nebulized
Experimental: as §2, §3

A549 = assay: Effects of surfactants on cell viability, MTT assay; format: cell-based, human; details: 1% in HBSS, positive control
Experimental: (§1) Effects of surfactants on cell viability study: The effects of a surfactant such as polysorbate 80 (PS 80) containing various fatty acids components were used in this study to determine their effect on cell viability in the lungs upon administration of composition for lung delivery. In vitro experiments were carried out using three different human cell lines, i.e., human cell lines A549 (type II pulmonary epithelial cell derived), hAELVi, (human alveolar epithelial cell) and Calu-3 (lung adenocarcinoma cell). The cell lines were obtained from ATCC (Bethesda, MD) and maintained as recommended by the provider and seeded and incubated for the 24 hour test in 96-well plates containing 4×10^4/well in RPMI 1640 medium (Gibco). For testing, the medium as aspirated, the cells were washed twice with Hank's balanced Salt Solution (HBSS) at pH 7.4 and a 0.2 ml sample solution containing a surfactant was added to the cells. HBSS was used as negative control as well as HBSS containing 1% TritonX-100 as positive control. Surfactants under study were two, a super-refined grade PS 80 comprising a mixture of various fatty acid esters of about 70% to 85% total content being oleic acid and having other components including, mystiric, palmitic, palmitoleic, stearic, linoleic and linolenic acid esters. This super-refined PS 80 (Tween® 80, A) manufactured by Mallinckrodt Baker or Merck, and a second PS 80 (B, NOF Corporation) comprising an oleic acid component of about 99% were tested. In the experiments to determine the in vitro IC50 values, the cell lines were exposed to equal concentrations of the two surfactants in HBSS solution at the same concentrations and several dilutions of the test compounds after incubation for 4 hours at 37° C. with shaking, washed with HBSS. Cell viability was assessed based on the absorbance measurements at 550 nm obtained using the MTT assay as described in Metz et al., J. ALTEX, Jan. 29, 2020: V.2 doi:10.14573/altex.1910231. FIGS. 8 and 9, and Table 16 illustrate data obtained from the experiments.

Calu-3 = assay: as above; format: cell-based, human; details: 1% in HBSS, positive control
Experimental: as §1

hAELVi = assay: as above; format: cell-based, human; details: 1% in HBSS, positive control
Experimental: as §1

## NCC[C@H](O)C(=O)N[C@@H]1C[C@H](N)[C@@H](O[C@H]2O[C@H](CN)[C@@H](O)[C@H](O)[C@H]2O)[C@H](O)[C@H]1O[C@H]1O[C@H](CO)[C@@H](O)[C@H](N)[C@H]1O [Amikacin, amikacin]
M. abscessus strain 103; SQ 150 mg/kg every other day
  Liver Log10 CFU ± SEM: 3.07 ± 0.10 Log10 CFU
  Lung Log10 CFU ± SEM: 3.94 ± 0.11 Log10 CFU
  Spleen Log10 CFU ± SEM: 4.37 ± 0.31 Log10 CFU

## CC(C)/N=c1\cc2n(-c3ccc(Cl)cc3)c3ccccc3nc-2cc1Nc1ccc(Cl)cc1 [Clofazimine, N,5-bis(4-chlorophenyl)-3-propan-2-yliminophenazin-2-amine]
M. avium
  MIC: > 2 µg/mL
M. abscessus strain 103; Oral 20 mg/kg every other day
  Liver Log10 CFU ± SEM: 4.78 ± 0.18 Log10 CFU
  Lung Log10 CFU ± SEM: 3.33 ± 0.17 Log10 CFU
  Spleen Log10 CFU ± SEM: 3.79 ± 0.10 Log10 CFU
[1]
  Liver Log10 CFU ± SEM: 3.01 ± 0.03 Log10 CFU
  Lung Log10 CFU ± SEM: 3.95 ± 0.03 Log10 CFU
  Spleen Log10 CFU ± SEM: 3.14 ± 0.03 Log10 CFU
M. avium 2285 rough
  Liver Log10 CFU ± SEM: 4.07 ± 0.04 Log10 CFU
  Lung Log10 CFU ± SEM: 5.94 ± 0.12 Log10 CFU
  Spleen Log10 CFU ± SEM: 3.08 ± 0.04 Log10 CFU
[2]; female, 0.74 mg/kg
  half-life: 8.99 h
[2]; female, 1.48 mg/kg
  half-life: 9.43 h
[2]; female, 2.52 mg/kg
  half-life: 7.23 h
[2]; male, 0.68 mg/kg
  half-life: 7.19 h
[2]; male, 1.36 mg/kg
  half-life: 8.95 h
[2]; male, 2.72 mg/kg
  half-life: 7.89 h
[3]; female, 2.95 mg/kg, Low dose females
  half-life: 262 h
[3]; male, 5.45 mg/kg, Mid dose males
  half-life: 239 h
[3]; male, 10.87 mg/kg, High dose males
  half-life: 475 h
clinical
  half-life: 290 h
[4]
  solubility in water: practically insoluble in water
[5]
  absorption in humans after oral administration: 45-62%
[6]; repeated administration, inhaled 30 or 90 mg daily for seven days
  time to peak plasma concentrations: 2 to 12 h
[6]; single administration, inhaled 30, 60, 90 mg
  time to peak plasma concentrations: 4 to 8 h
[6]; single administration, dose increase of 1.5-fold
  increase in AUC0-24: 1.6 fold
[6]; single administration, dose increase of 2-fold
  increase in AUC0-24: 2.3 fold
[7]
  Columbia Suicide Severity Rating Scale (C-SSRS): no suicidal ideation or behavior
  ECG results: no abnormal, clinically significant electrocardiogram
  skin discoloration: no evidence of skin discoloration

## Triton X-100
A549
  cell viability: loss all viability
Calu-3
  cell viability: loss all viability
hAELVi
  cell viability: loss all viability
